Results from patent US20260216342A1, “COMPOUNDS FOR NUCLEIC ACID CLEAVAGE” (priority 2023, published 2026).

Columns and labels:
E. coli ribosome = experiment: In vitro degradation of E. coli ribosome (agarose gel); type: biochemical; settings: 15 mM to 0.47 mM, 18 hours at 37° C.
Description: The degradation activity was measured in an in vitro assay, targeting the E. coli ribosome. 200 μM […] were incubated with degrader in different concentration, ranging from 15 mM to 0.47 mM, for 18 hours at 37° C. Evaluation was made by agarose gel analysis.

[1] = tested on: RNA extracted from SARS-CoV-2; experiment: Gel electrophoresis of SARS-CoV-2 RNA after degrader incubation; type: biochemical; settings: 100 μM, 2 h at 37° C.; FIG. 5f
SARS-CoV-2 [2] = type: in vivo, K18-hACE2 transgenic mice; settings: 10 mg/kg intranasally 1 hour pre-infection and 3 hours post-infection, day 5, plaque assay
SARS-CoV-2 [3] = experiment: Viral plaque-forming units by plaque assay; type: cell-based; settings: supernatants of cultures treated with 6 mM for 24 h, vs vehicle control
[4] = tested on: RNA 69-er corresponding to the coronaviral pseudoknot; type: biochemical; settings: 1 mM, 3 h incubation at 37° C.
SARS-CoV-2 [5] = type: cell-based; settings: Vero CCL-81, MOI 0.05, 24 h
SARS-CoV-2 [6] = experiment: Virucidal activity on cell free virions; settings: 6 μM, 1 h at 37° C., 1000 PFU, plaque assay
G4-forming RNA oligomer = experiment: Degradation of G4-forming RNA oligomer by non-covalent PDS-based degraders; type: biochemical; settings: 200 μM, CuSO4/THPTA/NaAsc, 37° C. for 4 h, LC-MS; FIG. 15
Description: […]. The mixture was heated at 95° C. for 5 minutes, then kept on ice for 30 minutes. CuSO4 (final concentration 200 μM), THPTA (700 μM) and NaAsc (50 mM) were then added, alongside with CBX-PDS, PDS-deg6 or PDS-Amlmi (200 μM). The reaction mixture was incubated at 37° C. for 4 h, quenched with EDTA (final concentration 12 mM) and then kept at 4° C. The reaction mixtures were analysed by LC-MS.

## chloramphenicol-ethyl-imidazole degrader [18c]
E. coli ribosome
  ribosome degradation: no degradation visible

## CCOC(=O)c1ccccc1NC(=O)N1CCCN(Cc2csc(C)n2)CC1 [MTDB]
[1]
  degradation of full-length coronaviral RNA on agarose gel: the two control molecules do not
SARS-CoV-2 [2]
  lung viral load: No differences in lung viral load
SARS-CoV-2 [3]
  number of viral plaques: only showed decreased number of viral plaques when added before infection
[4]
  degradation of RNA pseudoknot: no degradation
SARS-CoV-2 [5]; added before or after infection
  antiviral effect (coronaviral RNA in cells): did not exhibit an antiviral effect
SARS-CoV-2 [5]; drug added 1 h before or 1 h after infection
  50% inhibitory concentration (IC50): did not inhibit viral replication and thus IC50 values could not be determined
SARS-CoV-2 [6]
  virucidal effect on cell free virus: no virucidal effect was observed

## chloramphenicol-2PEG-imidazole degrader [18b]
E. coli ribosome
  ribosome degradation: ribosome degradation could be observed at a concentration of 15 mM

## chloramphenicol-6PEG-imidazole degrader [18a]
E. coli ribosome
  ribosome degradation: no degradation visible

## CN(C)Cc1nccn1CCOCCOCCOCCOCCOCCn1cc(COc2cc(C(=O)Nc3cc(OCCN)c4ccccc4n3)nc(C(=O)Nc3cc(OCCN)c4ccccc4n3)c2)nn1 [PDS-Amimi]
G4-forming RNA oligomer
  degrader potency on G4-forming RNA oligomer: more potent degrader than PDS-deg6

## O=C(N[C@H](CO)[C@H](O)c1ccc([N+](=O)[O-])cc1)C(Cl)Cl [chloramphenicol, Chloramphenicol]
E. coli ribosome
  ribosome degradation: no degradation
